Patent US20150079089A1, “EMP2 REGULATES ANGIOGENESIS IN CANCER CELLS THROUGH INDUCTION OF VEGF” (THE REGENTS OF THE UNIVERSITY OF CALIFORNIA, priority 2012, published 2015)
Entries after “also recorded” stand apart in the source; their conditions may differ.

Key:
[1] = system: HIF-1a; experiment: HIF-1a expression by Western blot in HEC1a/EMP2 cells treated with kinase inhibitors in a hypoxic chamber; type: cell-based, human; conditions: 24 hrs, 1.0% hypoxic chamber
Protocol: To determine if EMP2 expression altered VEGF expression and secretion, cells were placed in a hypoxic chamber for 24 hours. EMP2 expression directly correlated with VEGF protein levels (FIG. 4B) as well as with secreted protein (FIG. 4C). […] Western blot analysis was carried out by Cells were lysed in Laemmli buffer. Proteins were separated by SDS-PAGE, transferred to a nitrocellulose membrane (Amersham Biosciences), and stained with Ponceau S (Sigma-Aldrich, St. Louis, Mo.) to determine transfer efficiency. Membranes were blocked with 10% low fat milk in PBS containing 0.1% Tween 20 and probed with EMP2 antisera (1:1000), anti-VEGF (Santa Cruz Biotech), antiHIF-1a (1:800; BD Biosciences), anti-PPAR-y (Santa Cruz Biotech), anti-p-Src (Cell Signaling, Danvers). Protein bands were visualized using a horseradish peroxidase (HRP)-labeled secondary antibody (BD Biosciences) followed by chemiluminescence (ECL; Amersham Biosciences). Band intensities were quantified using the NIH program Image J as above. To account for loading variability β-actin was used to normalize each sample. At least three independent experiments were performed and, where indicated, the results were evaluated for statistical significance using a Student's t-test (unpaired, one-tail). A level of P<0.05 was considered to be statistically significant.
In some experiments, inhibitors were added to determine the contribution of specific pathways to HIF-1a expression. HEC1a/EMP2 cells were treated with 10 μM of the kinase inhibitor Ly294002 (Cell Signaling), the EGFR inhibitor Erlotinib e; 10 μM, Genentech), or the Src family tyrosine kinase inhibitor Dasatinib e; 10 μM, Bristol-Myers Squibb). Efficacy of the inhibitors was tested at the manufacturer's recommended dosage, and potential toxicity was measured using trypan-blue exclusion. Samples were harvested and probed by SDS-PAGE/Western blot analysis as above […]
Using common inhibitors of AKT, PI3-kinase, EGFR, and Src tyrosine kinases, HEC1a/EMP2 cells were treated with these agents while in a hypoxic chamber.

[2] = system: human aortic endothelial cell (HAEC); experiment: Boyden chamber migration of HAEC towards cultured tumor cell supernatants; type: cell-based; conditions: added at 10μg/ml to the cultured tumor cell supernatant
Protocol: FIG. 4 depicts that EMP2 regulates VEGF expression. (A) A Boyden chamber assay was used to determine human aortic endothelial cell (HAEC) response to cultured tumor cell supernatants. In some experiments, the antiVEGF antibody Avastin® which binds soluble VEGF was added at 10μg/ml to the cultured supernatant. (B) The expression of total VEGF was measured using Western blot analysis. EMP2 expression was visualized to verify modulation of EMP2 in the cell lines; β-Actin was used as the loading control. (C) Secreted VEGF was measured using an ELISA. (D) Semi-quantitative expression of VEGF mRNA was determined using RTPCR. The experiment was repeated three times with similar results, and a representative blot is shown. GAPDH expression serves as a loading control. (E) Left, To determine the mechanism for VEGF regulation, HIF-1 a and PP ARy expression was determined using Western blot analysis. β-Actin expression serves as the loading control. Right, Quantization of HIF-1a expression relative to β-Actin for three independent experiments. The data represents the mean±SEM. […] Appropriate vehicle control cells are included. Western blot analysis was used to show the expression of EMP2, HIF-1a, and β-Actin in these cells.
Human umbilical vein endothelial cells (HUVEC) from passage 2 were purchased from BD Biosciences (San Diego, Calif.) and used between passages 3 and 7 for all experiments. […]

[3] = system: HUVEC; conditions: supernatants of HEC1a/RIBO or HEC1a/shRNA 911; 20 or 50 µg/ml
Excerpt: Migration assays. […] The experiment was repeated three times.

O=c1[nH]c2ccccc2n1C1CCN(Cc2ccc(-c3nc4cc5[nH]cnc5cc4nc3-c3ccccc3)cc2)CC1 [AKTi, Akt inhibitor VIII]
EMP2-induced HIF-1a expression [1]: did not alter HIF-1a expression | EMP2-induced HIF-1a expression ([1]; listed as AKT inhibitors): did not suppress

CC(C)(C)n1nc(-c2ccc(Cl)cc2)c2c(N)ncnc21 [PP2]
EMP2-induced HIF-1a expression [1]: reversed

C#Cc1cccc(Nc2ncnc3cc(OCCOC)c(OCCOC)cc23)c1 [erlotinib, Erlotinib]
EMP2-induced HIF-1a expression [1]: produced a similar effect; also recorded: sufficient to inhibit its expression

Bevacizumab
HAEC migration [2]: reduced HAEC migration to control levels

VEGF
HUVEC cell tube formation [3]: sufficient to induce HUVEC cell tube formation
